# Values quoted from earlier work in patent publication US12708115B2, “Inground and above ground termite trailing and recruitment products and processes” (Florida Insect Control Group LLC, priority 2023, dated 2026).
# Test system: subterranean termites
smiles,measurement,setting,value
OCCOc1ccccc1 [2-phenoxyethanol],soil-treated detection stations hit by termites,"field, untreated stations 0 of 20",5 of 20
same,feeding on cellulose material surrounded by the treatment,"soil treatment, Prescott thesis",feed more
